Target: T1, purified poplar OMT (Populus trichocarpa x Populus deltoides, UniProt Q9LWB8)
T1 construct: closely related isoforms co-purify
Assay: Specific activity of the purified poplar OMT towards O-diphenolic substrates
Format: biochemical
Description: The specific activity of the purified OMT towards three different O-diphenolic substrates was measured. Using catechol, caffeic acid, and hydroxyferulic acid as substrate, we found an OMT activity of 0, 30, and 15 nkat/mg protein, respectively.

T1 sequence (Q9LWB8 entry or part of it T91I): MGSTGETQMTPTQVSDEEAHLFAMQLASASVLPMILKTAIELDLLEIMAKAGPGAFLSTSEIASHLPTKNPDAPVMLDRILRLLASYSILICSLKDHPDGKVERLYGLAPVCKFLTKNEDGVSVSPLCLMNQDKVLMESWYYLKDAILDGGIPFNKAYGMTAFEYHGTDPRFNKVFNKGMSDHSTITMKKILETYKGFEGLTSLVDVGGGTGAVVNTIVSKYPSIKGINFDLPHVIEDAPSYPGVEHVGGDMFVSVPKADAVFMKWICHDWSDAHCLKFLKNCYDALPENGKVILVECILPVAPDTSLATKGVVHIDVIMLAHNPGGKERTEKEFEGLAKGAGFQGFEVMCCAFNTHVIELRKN

Row | Compound | OMT activity (specific activity) with compound as substrate [nkat/mg protein]
1 | Oc1ccccc1O [catechol] | 0
2 | O=C(O)/C=C/c1ccc(O)c(O)c1 [caffeic acid] | 30
